Reference: patent US20250319032A1, “PHARMACEUTICAL COMPOSITIONS OF RIBOCICLIB” (Novartis AG, priority 2024, published 2025)

Columns and labels:
[1] = DMP433 (N-nitroso-ribociclib) content in ribociclib base (B10) and ribociclib succinate (B12, drug substance) batches and process experiments, LC-MS/MS or HPLC-HRMS; format: physicochemical; settings: for DMP433 [ppm] LOQ (0.0625 ppm) / DMP433 [ppm], result in brackets (extrapolation, estimate of actual value below LOQ): ribociclib base (LEE011 B10)
Source text: The method of testing for the presence and/or total amount of nitrosamines (such as the presence and/or total amount of N-nitroso-ribociclib in free or salt form) that is used in the methods of the invention may be any method which allows for the detection of nitrosamines in a composition. For example, the method may involve the Griess test described above. In such a method, the nitrosamines may be first denitrosated (e.g., by photolysis) to form a nitrite, which is then detected in the Griess test. Alternatively, the method may include high performance liquid chromatography (HPLC)- and/or gas chromatography (GC)-mass spectroscopy. An example of a method of testing for the presence and amount of nitrosamines (namely N-nitroso-ribociclib) is provided herein as Example 14. […]
2.7. […] Dissolve the substance using vortex and fill to volume with solvent (50% MeOH). • 3. Filter through 0.2 μm PVDF (polyvinylidene difluoride) or PTFE (polytetrafluoroethylene) filter into a HPLC amber vial, discard the first 0.5 ml.
A calibration curve for DMP433 is created, using calibration standard solutions L1-L6, and expressing the relationship between responses (peak areas) and standard concentrations (ng/ml). For L1, the average of 6 injections is used. Linear regression is weighed with 1/amount. […]

[2] = Nitrite content (ion chromatography; LC-FLD with DAN derivatisation; Griess test) in drug substance, intermediates, reagents, solvents, filters, excipients; format: physicochemical; settings: for Nitrite NAT enhanced sample prep. (ppm): ribociclib succinate drug substance batches at release
Source text: The method of testing for the presence and/or total amount of nitrites that is used in the methods of the invention may be any method which allows for the detection and/or quantitation of nitrites in a composition. For example, the method may be the Griess test. The Griess test allows for the detection and analysis of nitrite by the formation of a red-pink colour upon treatment of a nitrite-containing sample with the Griess reagent. The Griess reagent consists of two components in an acidic solution: an aniline derivative and a coupling agent. The most common arrangements use sulfanilamide and N-(1-naphthyl)ethylenediamine. For example 0.2% N-(1-naphthyl)ethylenediamine dihydrochloride and 2% sulfanilamide in 5% phosphoric acid may be used as a Griess reagent. Other aniline derivatives that may be used in a Griess reagent include sulfanilic acid, nitroaniline, and p-aminoacetophenone.
The Griess test involves two subsequent reactions, as shown in the scheme below. When the aniline derivative (e.g., sulfanilamide) is added, the nitrite ion reacts with it in the Griess diazotization reaction to form a diazonium salt, which then reacts with N-(1-naphthyl)ethylenediamine in an azo-coupling reaction, forming a pink-red azo-dye. Using a spectrophotometer, the nitrite concentration can then be quantitatively detected.
Additionally purified water; e.g. Milli Q • 2.
• 10 mM KH2PO4 Weigh accurately about 1.361 g of KH2PO4 into a 1 L volumetric flask, dissolve it in approximately 950 mL of additionally purified water and adjust the pH to 8.0 (with 2.7 M NaOH). Make up to the mark with additionally purified water. • 0.62 M HCl Add a few millilitres (e.g. 20 mL) of additionally purified water to a 200 mL volumetric flask, add 10.280 mL of concentrated HCl, mix and make up to the mark with additionally purified water. • 2.7 M NaOH Weigh accurately about 1.092 g of NaOH pellets into a 10 mL volumetric flask and dissolve it in additionally purified water. Cool to room temperature and make up to the mark with the same solvent. • Reagent DAN Weigh accurately about 5 mg of 2,3-diaminophthalene into a 100 mL volumetric flask and dissolve it with the solvent (methanol/water 1:1 (v/v)). Dilute up to the mark and ensure visual full dissolution. Use an amberglass flask. • Mobile phase A Mix 950 mL of 10 mM KH2PO4 solution (pH=8) and add 50 mL methanol. • Mobile phase B Methanol. • Solvent Methanol/water 1:1 (v/v), e.g. mix 2000 mL of additionally purified water and 2000 mL methanol.
• Instrument: HPLC with FLR detector; e.g. Waters Arc or equivalent • Column: C18 50×4.6 mm, 2.5 μm, e.g. XBridge C18 2.5 μm, 4.650 mm or equivalent
• Notes It is recommended to wear additional protective equipment (face mask and gloves) during weighing. • It is recommended to wash the column with 50% methanol after the analysis (example of preparation: mix 500 mL methanol and 500 m1 of additionally purified water). • It is recommended to rinse the injector with solvent after each injection. • All glassware and tools should be rinsed with additionally purified water before use. It is not recommended to leave the solutions open for a longer time before measurement. • Blank solution 1 Transfer 1 mL of solvent into a HPLC vial and perform derivatization as described below. • Blank solution 2 Transfer 10 mL of solvent into a single use glass vial and mix it on a magnetic stirrer for 30 min. Transfer the solution into a 5 mL centrifuge tube and centrifuge for 10 min at 12000 rpm. […] Fill up to the mark with solvent and mix. • (Cnitrite≈0.0005 mg/mL) • Comparison solution Transfer 10 mL of nitrite stock solution into a 500 mL volumetric flask. • (2 parallels) Fill up to the mark with solvent and mix. • Transfer 1 mL solution into a HPLC vial and perform the derivatization as described below. • (Cnitrite≈100 ppb) • Sample solution Accurately weigh about 1000 mg of the sample into a glass vial for single use and add 10 mL of solvent.

## CN(C)C(=O)c1cc2cnc(Nc3ccc(N4CCNCC4)cn3)nc2n1C1CCCC1.O=C(O)CCC(=O)O [Batch B699003AA]
[1]; drug substance DS06 used for tablet core experiments and binary mixtures
  DMP433 content (corrected value) at release: 0.655 ppm

## CN(C)C(=O)c1cc2cnc(Nc3ccc(N4CCNCC4)cn3)nc2n1C1CCCC1 [Batch B704194]
[1]
  DMP433 [ppm] LOQ (0.0625 ppm): LOQ
  DMP433 [ppm], result in brackets (extrapolation, estimate of actual value below LOQ): 0.005 ppm

## CN(C)C(=O)c1cc2cnc(Nc3ccc(N4CCNCC4)cn3)nc2n1C1CCCC1 [Batch B704196]
[1]
  DMP433 [ppm] LOQ (0.0625 ppm): LOQ
  DMP433 [ppm], result in brackets (extrapolation, estimate of actual value below LOQ): 0.019 ppm

## CN(C)C(=O)c1cc2cnc(Nc3ccc(N4CCNCC4)cn3)nc2n1C1CCCC1 [Batch B705465]
[1]
  DMP433 [ppm] LOQ (0.0625 ppm): LOQ
  DMP433 [ppm], result in brackets (extrapolation, estimate of actual value below LOQ): 0.037 ppm

## CN(C)C(=O)c1cc2cnc(Nc3ccc(N4CCNCC4)cn3)nc2n1C1CCCC1 [Batch B0705466]
[1]
  DMP433 [ppm] LOQ (0.0625 ppm): LOQ
  DMP433 [ppm], result in brackets (extrapolation, estimate of actual value below LOQ): 0.043 ppm

## CN(C)C(=O)c1cc2cnc(Nc3ccc(N4CCNCC4)cn3)nc2n1C1CCCC1 [Batch B0705467]
[1]
  DMP433 [ppm] LOQ (0.0625 ppm): LOQ
  DMP433 [ppm], result in brackets (extrapolation, estimate of actual value below LOQ): 0.035 ppm

## CN(C)C(=O)c1cc2cnc(Nc3ccc(N4CCNCC4)cn3)nc2n1C1CCCC1.O=C(O)CCC(=O)O [Batch B0705468]
[1]
  DMP433 [ppm] LOQ (0.0625 ppm): LOQ
  DMP433 [ppm], result in brackets (extrapolation, estimate of actual value below LOQ): 0.030 ppm

## CN(C)C(=O)c1cc2cnc(Nc3ccc(N4CCNCC4)cn3)nc2n1C1CCCC1.O=C(O)CCC(=O)O [Batch B728969]
[1]; starting material used for technical batch NV1900
  N-nitroso-ribociclib: 0.21 ppm

## CN(C)C(=O)c1cc2cnc(Nc3ccc(N4CCNCC4)cn3)nc2n1C1CCCC1.O=C(O)CCC(=O)O [DS (B699003AA)]
[2]; component (DS or MgST) used in binary mixtures
  Nitrite content: DS 0.1 ppm

## CC(C)O [IPA]
[2]; IPA used in resin loading experiments
  Nitrite in IPA: 1.6 ppb

## CN(C)C(=O)c1cc2cnc(Nc3ccc(N4CCNCC4)cn3)nc2n1C1CCCC1.O=C(O)CCC(=O)O [LEE011-haenepa1-012]
[1]; washing of isolated ribociclib succinate, laboratory scale (conditions per experiment)
  DMP433 in LEE011-B12: 746 ppb

## CN(C)C(=O)c1cc2cnc(Nc3ccc(N4CCNCC4)cn3)nc2n1C1CCCC1.O=C(O)CCC(=O)O [LEE011-haenepa1-013]
[1]; re-slurry of LEE011-B12 in iPrOH at 10° C.
  DMP433 in LEE011-B12: 64 ppm

## CN(C)C(=O)c1cc2cnc(Nc3ccc(N4CCNCC4)cn3)nc2n1C1CCCC1.O=C(O)CCC(=O)O [RIBOCICLIB SUCCINATE 833268A144]
[2]; manufacturer Raybow - DS04
  Nitrite NAT enhanced sample prep. (ppm): <0.1 ppm
[2]; manufacturer Raybow - DS05
  Nitrite NAT enhanced sample prep. (ppm): <0.1 ppm

## CN(C)C(=O)c1cc2cnc(Nc3ccc(N4CCNCC4)cn3)nc2n1C1CCCC1.O=C(O)CCC(=O)O [RIBOCICLIB SUCCINATE 833268A193]
[2]; manufacturer Raybow - DS04
  Nitrite NAT enhanced sample prep. (ppm): 0.1 ppm
[2]; manufacturer Raybow - DS05
  Nitrite NAT enhanced sample prep. (ppm): 0.1 ppm

## CN(C)C(=O)c1cc2cnc(Nc3ccc(N4CCNCC4)cn3)nc2n1C1CCCC1.O=C(O)CCC(=O)O [RIBOCICLIB SUCCINATE 833268A196]
[2]; manufacturer Raybow - DS04
  Nitrite NAT enhanced sample prep. (ppm): 1.1 ppm
[2]; manufacturer Raybow - DS05
  Nitrite NAT enhanced sample prep. (ppm): 0.1 ppm

## CN(C)C(=O)c1cc2cnc(Nc3ccc(N4CCNCC4)cn3)nc2n1C1CCCC1.O=C(O)CCC(=O)O [RIBOCICLIB SUCCINATE 833268A198]
[2]; manufacturer Raybow - DS04
  Nitrite NAT enhanced sample prep. (ppm): 0.1 ppm
[2]; manufacturer Raybow - DS05
  Nitrite NAT enhanced sample prep. (ppm): 0.1 ppm

## CN(C)C(=O)c1cc2cnc(Nc3ccc(N4CCNCC4)cn3)nc2n1C1CCCC1.O=C(O)CCC(=O)O [RIBOCICLIB SUCCINATE 833268A201]
[2]; manufacturer Raybow - DS04
  Nitrite NAT enhanced sample prep. (ppm): 0.1 ppm
[2]; manufacturer Raybow - DS05
  Nitrite NAT enhanced sample prep. (ppm): 0.1 ppm

## CN(C)C(=O)c1cc2cnc(Nc3ccc(N4CCNCC4)cn3)nc2n1C1CCCC1.O=C(O)CCC(=O)O [RIBOCICLIB SUCCINATE 833268A202]
[2]; manufacturer Raybow - DS04
  Nitrite NAT enhanced sample prep. (ppm): 0.1 ppm
[2]; manufacturer Raybow - DS05
  Nitrite NAT enhanced sample prep. (ppm): 0.1 ppm

## CN(C)C(=O)c1cc2cnc(Nc3ccc(N4CCNCC4)cn3)nc2n1C1CCCC1.O=C(O)CCC(=O)O [RIBOCICLIB SUCCINATE 833268A207]
[2]; manufacturer Raybow - DS04
  Nitrite NAT enhanced sample prep. (ppm): 0.1 ppm
[2]; manufacturer Raybow - DS05
  Nitrite NAT enhanced sample prep. (ppm): 0.1 ppm

## CN(C)C(=O)c1cc2cnc(Nc3ccc(N4CCNCC4)cn3)nc2n1C1CCCC1.O=C(O)CCC(=O)O [RIBOCICLIB SUCCINATE 833268A211]
[2]; manufacturer Raybow - DS04
  Nitrite NAT enhanced sample prep. (ppm): <0.1 ppm

## CN(C)C(=O)c1cc2cnc(Nc3ccc(N4CCNCC4)cn3)nc2n1C1CCCC1.O=C(O)CCC(=O)O [RIBOCICLIB SUCCINATE 833268A212]
[2]; manufacturer Raybow - DS04
  Nitrite NAT enhanced sample prep. (ppm): <0.1 ppm

## CN(C)C(=O)c1cc2cnc(Nc3ccc(N4CCNCC4)cn3)nc2n1C1CCCC1.O=C(O)CCC(=O)O [RIBOCICLIB SUCCINATE 833268R008]
[2]; manufacturer Raybow - DS04
  Nitrite NAT enhanced sample prep. (ppm): 0.3 ppm

## CN(C)C(=O)c1cc2cnc(Nc3ccc(N4CCNCC4)cn3)nc2n1C1CCCC1.O=C(O)CCC(=O)O [RIBOCICLIB SUCCINATE 833268R009]
[2]; manufacturer Raybow - DS04
  Nitrite NAT enhanced sample prep. (ppm): <0.1 ppm

## CN(C)C(=O)c1cc2cnc(Nc3ccc(N4CCNCC4)cn3)nc2n1C1CCCC1.O=C(O)CCC(=O)O [RIBOCICLIB SUCCINATE 833268R010]
[2]; manufacturer Raybow - DS04
  Nitrite NAT enhanced sample prep. (ppm): <0.1 ppm

## CN(C)C(=O)c1cc2cnc(Nc3ccc(N4CCNCC4)cn3)nc2n1C1CCCC1.O=C(O)CCC(=O)O [RIBOCICLIB SUCCINATE 833268R011]
[2]; manufacturer Raybow - DS04
  Nitrite NAT enhanced sample prep. (ppm): <0.1 ppm

## CN(C)C(=O)c1cc2cnc(Nc3ccc(N4CCNCC4)cn3)nc2n1C1CCCC1.O=C(O)CCC(=O)O [RIBOCICLIB SUCCINATE 833268R012]
[2]; manufacturer Raybow - DS04
  Nitrite NAT enhanced sample prep. (ppm): <0.1 ppm

## CN(C)C(=O)c1cc2cnc(Nc3ccc(N4CCNCC4)cn3)nc2n1C1CCCC1.O=C(O)CCC(=O)O [RIBOCICLIB SUCCINATE 833268R013]
[2]; manufacturer Raybow - DS04
  Nitrite NAT enhanced sample prep. (ppm): <0.1 ppm

## CN(C)C(=O)c1cc2cnc(Nc3ccc(N4CCNCC4)cn3)nc2n1C1CCCC1.O=C(O)CCC(=O)O [RIBOCICLIB SUCCINATE 833268R014]
[2]; manufacturer Raybow - DS04
  Nitrite NAT enhanced sample prep. (ppm): <0.1 ppm

## CN(C)C(=O)c1cc2cnc(Nc3ccc(N4CCNCC4)cn3)nc2n1C1CCCC1.O=C(O)CCC(=O)O [RIBOCICLIB SUCCINATE 833268R015]
[2]; manufacturer Raybow - DS04
  Nitrite NAT enhanced sample prep. (ppm): <0.1 ppm

## CN(C)C(=O)c1cc2cnc(Nc3ccc(N4CCNCC4)cn3)nc2n1C1CCCC1.O=C(O)CCC(=O)O [RIBOCICLIB SUCCINATE 833268R016]
[2]; manufacturer Raybow - DS04
  Nitrite NAT enhanced sample prep. (ppm): <0.1 ppm

## CN(C)C(=O)c1cc2cnc(Nc3ccc(N4CCNCC4)cn3)nc2n1C1CCCC1.O=C(O)CCC(=O)O [RIBOCICLIB SUCCINATE 834325A015]
[2]; manufacturer Raybow - DS05
  Nitrite NAT enhanced sample prep. (ppm): 0.1 ppm

## CN(C)C(=O)c1cc2cnc(Nc3ccc(N4CCNCC4)cn3)nc2n1C1CCCC1.O=C(O)CCC(=O)O [RIBOCICLIB SUCCINATE 834325A016]
[2]; manufacturer Raybow - DS05
  Nitrite NAT enhanced sample prep. (ppm): 0.1 ppm
